Active and inactive are the calls of the source. No cut-off for these calls is given here. Bounds are passed on as bounds.

The test system of one assay is HL-60. Kind of assay: Cytotoxicity against human topoisomerase 2-sensitive HL60 cells after 72 hrs by MTT assay. The assay is classed as functional, cell-based. Conditions: HL-60, 72 h. (Formazan colour is commonly taken as a measure of viable cells.)
The nature of assay [1]: Cytotoxicity against human HL60/MX2 cells after 72 hrs by MTT assay. The assay is classed as functional, cell-based. The settings on record: HL60/MX2, 72 h.
The target of assay [2] is T1, DNA topoisomerase 1 (Homo sapiens) (UniProt P11387).
T1 sequence (whole entry): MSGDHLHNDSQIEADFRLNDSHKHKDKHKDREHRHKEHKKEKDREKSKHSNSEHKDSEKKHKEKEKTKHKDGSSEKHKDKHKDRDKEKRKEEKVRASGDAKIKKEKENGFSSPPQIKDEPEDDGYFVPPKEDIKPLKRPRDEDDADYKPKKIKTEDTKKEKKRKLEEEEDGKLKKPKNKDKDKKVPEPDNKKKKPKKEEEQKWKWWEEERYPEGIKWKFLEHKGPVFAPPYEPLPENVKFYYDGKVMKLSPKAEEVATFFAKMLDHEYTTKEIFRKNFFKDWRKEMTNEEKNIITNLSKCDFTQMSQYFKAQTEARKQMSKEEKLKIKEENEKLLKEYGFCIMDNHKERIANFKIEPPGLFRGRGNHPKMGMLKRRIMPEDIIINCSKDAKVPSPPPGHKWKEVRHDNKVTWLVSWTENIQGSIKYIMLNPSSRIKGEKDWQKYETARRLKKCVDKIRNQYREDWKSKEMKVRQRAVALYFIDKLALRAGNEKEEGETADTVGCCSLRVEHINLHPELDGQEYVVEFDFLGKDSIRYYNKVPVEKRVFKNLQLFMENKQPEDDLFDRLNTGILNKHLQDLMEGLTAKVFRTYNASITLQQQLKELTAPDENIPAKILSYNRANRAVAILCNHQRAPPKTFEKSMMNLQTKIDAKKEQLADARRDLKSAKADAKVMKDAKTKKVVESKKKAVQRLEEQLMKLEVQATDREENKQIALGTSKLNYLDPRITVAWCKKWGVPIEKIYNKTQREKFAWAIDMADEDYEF
The assay can be described thus: Inhibition of human topoisomerase 1-mediated relaxation of pUC18 DNA assessed as formation of nicked DNA up to 50 uM using ethidium bromide staining by agarose gel electrophoresis.

Assay [3] concerns Calf thymus DNA. The assay can be described thus: Binding affinity to calf thymus DNA assessed as change in melting temperature at 10 uM. The assay is classed as nucleic-acid assay. The settings on record: Bos taurus.
Assay [4] deals with Calf thymus DNA. The assay can be described thus: Binding affinity to calf thymus DNA assessed as change in melting temperature at 20 uM. The assay is classed as nucleic-acid assay. The settings on record: Bos taurus.
For assay [5], the system named is Nucleic Acid. The assay can be described thus: Binding affinity to [poly(dAdT)]2 DNA assessed as change in melting temperature at 10 uM. The assay is classed as nucleic-acid assay.
Assay [6] has as its system Nucleic Acid. The assay can be described thus: Binding affinity to [poly(dAdT)]2 DNA assessed as change in melting temperature at 20 uM. The assay is classed as nucleic-acid assay.
Assay [7] addresses DNA topoisomerase 2-alpha (Homo sapiens) (UniProt P11388). The assay can be described thus: Inhibition of human topoisomerase 2-mediated relaxation of pUC18 DNA assessed as formation of nicked DNA at 50 uM using ethidium bromide staining by agarose gel electrophoresis.

Sequence of DNA topoisomerase 2-alpha (Homo sapiens) (P11388 whole entry): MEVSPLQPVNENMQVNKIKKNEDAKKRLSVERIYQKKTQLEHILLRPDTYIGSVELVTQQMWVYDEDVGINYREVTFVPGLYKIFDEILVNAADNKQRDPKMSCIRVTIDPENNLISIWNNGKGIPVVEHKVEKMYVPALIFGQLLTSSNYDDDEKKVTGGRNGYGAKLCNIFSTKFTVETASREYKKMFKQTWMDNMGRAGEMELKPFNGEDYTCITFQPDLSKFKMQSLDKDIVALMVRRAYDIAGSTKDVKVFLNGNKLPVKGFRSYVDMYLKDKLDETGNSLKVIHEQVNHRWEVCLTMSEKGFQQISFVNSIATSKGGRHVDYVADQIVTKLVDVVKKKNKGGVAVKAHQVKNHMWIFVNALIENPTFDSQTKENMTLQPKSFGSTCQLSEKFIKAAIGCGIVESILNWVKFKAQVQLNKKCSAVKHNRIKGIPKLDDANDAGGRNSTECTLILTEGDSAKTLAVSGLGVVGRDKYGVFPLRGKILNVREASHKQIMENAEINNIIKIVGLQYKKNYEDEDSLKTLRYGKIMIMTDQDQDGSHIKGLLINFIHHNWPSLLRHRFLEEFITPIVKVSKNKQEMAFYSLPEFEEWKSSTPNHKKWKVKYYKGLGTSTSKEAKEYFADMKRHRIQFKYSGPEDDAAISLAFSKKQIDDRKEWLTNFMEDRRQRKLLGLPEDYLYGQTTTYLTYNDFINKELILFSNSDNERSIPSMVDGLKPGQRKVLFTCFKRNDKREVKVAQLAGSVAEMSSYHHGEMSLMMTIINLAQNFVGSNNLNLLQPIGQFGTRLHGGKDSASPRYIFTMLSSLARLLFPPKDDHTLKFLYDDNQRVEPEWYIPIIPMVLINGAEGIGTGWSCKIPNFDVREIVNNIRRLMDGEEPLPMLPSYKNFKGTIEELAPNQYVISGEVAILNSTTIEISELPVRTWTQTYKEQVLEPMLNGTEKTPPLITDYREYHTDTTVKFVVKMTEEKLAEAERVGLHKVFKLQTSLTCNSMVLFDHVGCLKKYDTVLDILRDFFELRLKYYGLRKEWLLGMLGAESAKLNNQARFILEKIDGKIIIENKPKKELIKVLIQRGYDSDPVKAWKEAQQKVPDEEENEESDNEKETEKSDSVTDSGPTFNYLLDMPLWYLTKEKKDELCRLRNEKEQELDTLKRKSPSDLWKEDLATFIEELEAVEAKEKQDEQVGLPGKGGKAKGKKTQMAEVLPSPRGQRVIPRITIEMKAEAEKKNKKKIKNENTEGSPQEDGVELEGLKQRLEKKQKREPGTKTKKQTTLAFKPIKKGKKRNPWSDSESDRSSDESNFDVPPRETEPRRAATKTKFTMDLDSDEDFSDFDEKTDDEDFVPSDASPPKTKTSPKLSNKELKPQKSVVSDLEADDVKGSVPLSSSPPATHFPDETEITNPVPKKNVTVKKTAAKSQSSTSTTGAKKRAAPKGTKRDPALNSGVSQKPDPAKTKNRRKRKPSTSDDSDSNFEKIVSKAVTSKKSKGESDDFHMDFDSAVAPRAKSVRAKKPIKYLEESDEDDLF

By IC50 is commonly meant the midpoint of a concentration-inhibition curve. A lower IC50 goes with greater potency in that assay. As usually defined, the inhibition is the relative decrease from the control value, in per cent. The ΔTm is the shift of the melting midpoint relative to a reference. `CCn1c2ccccc2c2c3c(=O)[nH]c(NCCN(C)C)nc3ccc21`: the IC50 (in the assay on HL-60; in assay [1]) was 17 µM in each case. For the same molecule, the inhibition result in assay [2] was “inactive”. Besides, the ΔTm came to 3 °C in the assay on Calf thymus DNA [3], 2.3 °C in the assay with Calf thymus DNA [4], 15.9 °C in the assay with Nucleic Acid [5] and 15.4 °C in the assay on Nucleic Acid [6].
In the case of `COc1cc([C@@H]2c3cc4c(cc3[C@@H](O[C@@H]3O[C@@H]5CO[C@@H](C)O[C@H]5[C@H](O)[C@H]3O)[C@H]3COC(=O)[C@H]23)OCO4)cc(OC)c1O` [ETOPOSIDE], the IC50 with HL-60 turned out to be 1.3 µM; in assay [1], 11.9 µM. The thermal shift (ΔTm) in the assay on Calf thymus DNA [3], in the assay with Calf thymus DNA [4], in the assay on Nucleic Acid [5] and with Nucleic Acid [6] was 0 °C throughout.
For the molecule `CN(C)CCNc1nc2c([nH]c3ccccc32)c(=O)[nH]1`, the IC50 (with HL-60; in assay [1]) was greater than 100 µM throughout. Besides, the inhibition in assay [7] is 10%. For the same molecule, the inhibition entry in assay [2] is “inactive”. The ΔTm was 0.4 °C in the assay with Calf thymus DNA [3], 0 °C in the assay with Calf thymus DNA [4], 4.4 °C with Nucleic Acid [5] and 3 °C in the assay with Nucleic Acid [6].

The record behind these values is ChEMBL document CHEMBL1177780, “Montmorillonite K-10 catalyzed cyclization of N-ethoxycarbonyl-N'-arylguanidines: access to pyrimido[4,5-c]carbazole and pyrimido[5,4-b]indole derivatives” (Bioorg Med Chem Lett, 2010).
